Measurements reported in US11608335B2, “Somatostatin modulators and uses thereof” (CRINETICS PHARMACEUTICALS, INC., priority 2018, dated 2023).
pEC50: −log10 of the molar value.

Biological target: human somatostatin receptor subtype 5 (Homo sapiens, UniProt P35346)
Assay: cAMP assay for SST5R (inhibition of cAMP via human SST5 receptor)
Conditions: not given

Sequence of human somatostatin receptor subtype 5 (P35346 whole entry): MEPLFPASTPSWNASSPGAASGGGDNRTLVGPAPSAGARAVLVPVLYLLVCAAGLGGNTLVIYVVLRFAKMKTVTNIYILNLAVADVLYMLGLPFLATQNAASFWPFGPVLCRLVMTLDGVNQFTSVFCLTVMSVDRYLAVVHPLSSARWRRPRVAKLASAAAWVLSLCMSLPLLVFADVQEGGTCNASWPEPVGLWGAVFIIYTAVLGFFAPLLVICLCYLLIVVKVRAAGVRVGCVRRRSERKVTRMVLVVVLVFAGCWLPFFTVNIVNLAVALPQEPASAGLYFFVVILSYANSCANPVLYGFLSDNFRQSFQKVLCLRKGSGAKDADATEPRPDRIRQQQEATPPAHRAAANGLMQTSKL

| pEC50 | SMILES |
| --- | --- |
| 6.00 to 7.00 | N#Cc1cc(F)cc(-c2cncc(-c3nc4cccc(F)c4[nH]3)c2N2CCC(N)(C(F)(F)F)C2)c1 (centres unmarked) [Compound 2-78, 3-{4-[3-amino-3-(trifluoromethyl)pyrrolidin-1-yl]-5-(4-fluoro-1H-1,3-benzodiazol-2-yl)pyridin-3-yl}-5-fluorobenzonitrile] |
| < 6.00 | NC(=O)c1cccc(-c2cncc(-c3nc4cccc(F)c4[nH]3)c2N2CCC(N)(C(F)(F)F)C2)c1 (centres unmarked) [Compound 2-64, 3-{4-[3-amino-3-(trifluoromethyl)pyrrolidin-1-yl]-5-(4-fluoro-1H-1,3-benzodiazol-2-yl)pyridin-3-yl}benzamide] |
| > 8.00 | Cc1cccc2[nH]c(-c3cncc(-c4ccnc(C(N)=O)c4)c3N3CC[C@](C)(N)C3)nc12 [Compound 2-156, 4-[(3S)-3-amino-3-methylpyrrolidin-1-yl]-5-(4-methyl-1H-1,3-benzodiazol-2-yl)-[3,4′-bipyridine]-2′-carboxamide] |
| < 6.00 | Cc1cccc2nc(-c3cncc(-c4cc(F)c(F)c(C(=O)O)c4)c3N3CCC(C)(N)C3)[nH]c12 (centres unmarked) [Compound 2-126, 5-[4-(3-amino-3-methylpyrrolidin-1-yl)-5-(4-methyl-1H-1,3-benzodiazol-2-yl)pyridin-3-yl]-2,3-difluorobenzoic acid] |
| > 8.00 | Cc1cccc2nc(-c3cncc(-c4cccc(C(N)=O)c4)c3N3CC[C@H](N)C3)[nH]c12 [Compound 2-97, 3-{4-[(3S)-3-aminopyrrolidin-1-yl]-5-(4-methyl-1H-1,3-benzodiazol-2-yl)pyridin-3-yl}benzamide] |
| 7.00 to 8.00 | Cn1c(-c2cncc(-c3cc(F)cc(C#N)c3)c2N2CC[C@H](N)C2)nc2cccc(Cl)c21 [Compound 2-117, 3-{4-[(3S)-3-aminopyrrolidin-1-yl]-5-(7-chloro-1-methyl-1H-1,3-benzodiazol-2-yl)pyridin-3-yl}-5-fluorobenzonitrile] |
| > 8.00 | NC(=O)c1cccc(-c2cncc(-c3nc4cccc(F)c4[nH]3)c2N2CC[C@H](N)C2)c1 [Compound 2-85, 3-{4-[(3S)-3-aminopyrrolidin-1-yl]-5-(4-fluoro-1H-1,3-benzodiazol-2-yl)pyridin-3-yl}benzamide] |
| 7.00 to 8.00 | Cn1c(-c2cncc(-c3cc(F)cc(C#N)c3)c2N2CC[C@H](N)C2)nc2ccccc21 [Compound 2-110, 3-{4-[(3S)-3-aminopyrrolidin-1-yl]-5-(1-methyl-1H-1,3-benzodiazol-2-yl)pyridin-3-yl}-5-fluorobenzonitrile] |
| 6.00 to 7.00 | N#Cc1ccc(-c2cncc(-c3nc4cccc(F)c4[nH]3)c2N2CC[C@H](N)C2)cc1 [Compound 2-42, 4-{4-[(3S)-3-aminopyrrolidin-1-yl]-5-(4-fluoro-1H-1,3-benzodiazol-2-yl)pyridin-3-yl}benzonitrile] |
| 6.00 to 7.00 | COCCn1c(-c2cncc(-c3cc(F)cc(C#N)c3)c2N2CC[C@H](N)C2)nc2ccccc21 [Compound 2-112, 3-{4-[(3S)-3-aminopyrrolidin-1-yl]-5-[1-(2-methoxyethyl)-1H-1,3-benzodiazol-2-yl]pyridin-3-yl}-5-fluorobenzonitrile] |
| 6.00 to 7.00 | N#Cc1cccc(-c2cncc(-c3nc4c(C(N)=O)cccc4[nH]3)c2N2CC[C@H](N)C2)c1 [Compound 2-83, 2-{4-[(3S)-3-aminopyrrolidin-1-yl]-5-(3-cyanophenyl)pyridin-3-yl}-1H-1,3-benzodiazole-4-carboxamide] |
| > 8.00 | Cc1ccnc2[nH]c(-c3cncc(-c4cc(F)cc(C(N)=O)c4)c3N3CC[C@](C)(N)C3)nc12 [Compound 2-169, 3-{4-[(3S)-3-amino-3-methylpyrrolidin-1-yl]-5-{7-methyl-1H-imidazo[4,5-b]pyridin-2-yl}pyridin-3-yl}-5-fluorobenzamide] |
| > 8.00 | Cc1ccc2nc(-c3cncc(-c4cc(F)cc(Cl)c4)c3N3CC[C@H](N)C3)[nH]c2c1 [Compound 2-102, (3S)-1-[3-(3-chloro-5-fluorophenyl)-5-(5-methyl-1H-1,3-benzodiazol-2-yl)pyridin-4-yl]pyrrolidin-3-amine] |
| > 8.00 | Cn1c(-c2cncc(-c3ccnc(C#N)c3)c2N2CC[C@](C)(N)C2)nc2c(F)cccc21 [Compound 2-150, 4-[(3S)-3-amino-3-methylpyrrolidin-1-yl]-5-(4-fluoro-1-methyl-1H-1,3-benzodiazol-2-yl)-[3,4′-bipyridine]-2′-carbonitrile] |

Continued, molecule first:

| SMILES | pEC50 |
| --- | --- |
| Cc1cc(-c2cncc(-c3nc4cc(F)cc(F)c4[nH]3)c2N2CC(CN)C2)cc(C(F)(F)F)c1 [Compound 1-33, 1-{1-[3-(4,6-difluoro-1H-1,3-benzodiazol-2-yl)-5-[3-methyl-5-(trifluoromethyl)phenyl]pyridin-4-yl]azetidin-3-yl}methanamine] | 6.00 to 7.00 |
| Cc1cc(F)cc(-c2cncc(-c3ncc[nH]3)c2N2CC(CN)C2)c1 [Compound 1-56, 1-{1-[3-(3-fluoro-5-methylphenyl)-5-(1H-imidazol-2-yl)pyridin-4-yl]azetidin-3-yl}methanamine] | < 6.00 |
| NCC1CN(c2c(-c3cc(Cl)cc(Cl)c3)cncc2-c2nc3cc(F)cc(F)c3[nH]2)C1 [Compound 1-60, 1-{1-[3-(3,5-dichlorophenyl)-5-(4,6-difluoro-1H-1,3-benzodiazol-2-yl)pyridin-4-yl]azetidin-3-yl}methanamine] | > 8.00 |
| NCC1CN(c2c(-c3nc4cc(F)cc(F)c4[nH]3)cncc2-c2cccc3cc[nH]c23)C1 [Compound 1-36, 1-{1-[3-(4,6-difluoro-1H-1,3-benzodiazol-2-yl)-5-(1H-indol-7-yl)pyridin-4-yl]azetidin-3-yl}methanamine] | 7.00 to 8.00 |
| Cc1cc(F)cc(-c2cncc(-c3nc4cc(F)cc(F)c4[nH]3)c2N2CC(C(N)CO)C2)c1 (centres unmarked) [Compound 1-49, 2-Amino-2-{1-[3-(4,6-difluoro-1H-1,3-benzodiazol-2-yl)-5-(3-fluoro-5-methylphenyl)pyridin-4-yl]azetidin-3-yl}ethan-1-ol] | > 8.00 |
| Cc1cc(F)cc(-c2cncc(-c3nc4cc(F)c(F)cc4[nH]3)c2N2CC(CN)C2)c1 [Compound 1-13, 1-{1-[3-(5,6-difluoro-1H-1,3-benzodiazol-2-yl)-5-(3-fluoro-5-methylphenyl)pyridin-4-yl]azetidin-3-yl}methanamine] | 7.00 to 8.00 |

Same assay, conditions: SST5 over SST2, given as number (comparison compounds)

| SMILES | Fold selectivity for SST5 vs SST2 |
| --- | --- |
| COc1cc(Cl)cc2[nH]c(-c3cncc(-c4cc(C)cc(F)c4)c3N3CCC(N)CC3)nc12 | 0.00004 |

Biological target: T1, human somatostatin receptor subtype 2 (Homo sapiens, UniProt P30874)
T1 construct: expressed in transfected cells
T1 sequence (P30874 whole entry): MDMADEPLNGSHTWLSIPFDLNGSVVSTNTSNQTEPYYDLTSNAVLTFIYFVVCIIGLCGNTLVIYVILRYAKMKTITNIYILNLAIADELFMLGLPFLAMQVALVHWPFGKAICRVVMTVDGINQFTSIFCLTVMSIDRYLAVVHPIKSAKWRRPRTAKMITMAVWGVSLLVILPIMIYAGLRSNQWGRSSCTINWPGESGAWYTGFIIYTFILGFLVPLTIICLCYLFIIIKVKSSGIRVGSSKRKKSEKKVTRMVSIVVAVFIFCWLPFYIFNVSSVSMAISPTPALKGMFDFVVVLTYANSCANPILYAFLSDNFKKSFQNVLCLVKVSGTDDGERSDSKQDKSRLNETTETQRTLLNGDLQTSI
Assay: cAMP assay for SST2R (inhibition of cAMP via human SST2 receptor)
Assay type: cell-based
Conditions: Table B, read-out: SST2 potency
Text: cAMP Assay Protocol for SST2R:

| pEC50 | SMILES |
| --- | --- |
| 6.00 to 7.00 | Cc1cc(F)cc(-c2cncc(-c3nc4cc(F)cc(F)c4[nH]3)c2N2CCC(N)C2)c1 (centres unmarked) [Compound 2-1, 1-[3-(4,6-difluoro-1H-1,3-benzodiazol-2-yl)-5-(3-fluoro-5-methylphenyl)pyridin-4-yl]pyrrolidin-3-amine] |
| 6.00 to 7.00 | Cc1cc(F)cc(-c2cncc(-c3nc4c(F)cccc4[nH]3)c2N2CC[C@H](N)C2)c1 [Compound 2-193, (3S)-1-[3-(4-fluoro-1H-1,3-benzodiazol-2-yl)-5-(3-fluoro-5-methylphenyl)pyridin-4-yl]pyrrolidin-3-amine] |
| 6.00 to 7.00 | Cc1cc(F)cc(-c2cncc(-c3nc4c(F)cc(F)cc4[nH]3)c2N2CC[C@H](N)C2)c1 (stereo in doubt) [Compound 2-194, 1-[3-(4,6-difluoro-1H-1,3-benzodiazol-2-yl)-5-(3-fluoro-5-methylphenyl)pyridin-4-yl]pyrrolidin-3-amine] |
| 6.00 to 7.00 | N[C@H]1CCN(c2c(-c3cc(F)cc(Cl)c3)cncc2-c2nc3c(F)cccc3[nH]2)C1 [Compound 2-3, (3 S)-1-[3-(3-chloro-5-fluorophenyl)-5-(4-fluoro-1H-1,3-benzodiazol-2-yl)pyridin-4-yl]pyrrolidin-3-amine] |
| 6.00 to 7.00 | N#Cc1cc(-c2cncc(-c3nc4c(Cl)cccc4[nH]3)c2N2CC[C@H](N)C2)ccc1F [Compound 2-51, 5-{4-[(3S)-3-aminopyrrolidin-1-yl]-5-(4-chloro-1H-1,3-benzodiazol-2-yl)pyridin-3-yl}-2-fluorobenzonitrile] |
| < 6.00 | N#Cc1cc(F)cc(-c2cncc(-c3nc4c(F)cccc4[nH]3)c2N2CC[C@H](N)C2)c1 [Compound 2-8, 3-{4-[(3S)-3-aminopyrrolidin-1-yl]-5-(4-fluoro-1H-1,3-benzodiazol-2-yl)pyridin-3-yl}-5-fluorobenzonitrile] |

Second part, the molecule before the results:

| SMILES | pEC50 |
| --- | --- |
| Cc1cc(F)cc(-c2cncc(-c3nc4c(F)cc(F)cc4[nH]3)c2N2CC(C(C)N)C2)c1 (centres unmarked) [Compound 1-42, 1-{1-[3-(4,6-difluoro-1H-1,3-benzodiazol-2-yl)-5-(3-fluoro-5-methylphenyl)pyridin-4-yl]azetidin-3-yl}ethan-1-amine] | 6.00 to 7.00 |
| Cc1cc(F)cc(-c2cncc(-c3nc4c(F)cccc4[nH]3)c2N2CC(CN)C2)c1 [Compound 1-2, 1-{1-[3-(4-fluoro-1H-1,3-benzodiazol-2-yl)-5-(3-fluoro-5-methylphenyl)pyridin-4-yl]azetidin-3-yl}methanamine] | < 6.00 |
| Cc1cc(F)cc(-c2cncc(-c3nc4cc(F)ccc4[nH]3)c2N2CC(CN)C2)c1 [Compound 1-1, 1-{1-[3-(5-fluoro-1H-1,3-benzodiazol-2-yl)-5-(3-fluoro-5-methylphenyl)pyridin-4-yl]azetidin-3-yl}methanamine] | < 6.00 |
| CC(N)C1CN(c2c(-c3cc(F)cc(C#N)c3)cncc2-c2nc3c(F)cc(F)cc3[nH]2)C1 (centres unmarked) [Compound 1-64, 3-{4-[3-(1-aminoethyl)azetidin-1-yl]-5-(4,6-difluoro-1H-1,3-benzodiazol-2-yl)pyridin-3-yl}-5-fluorobenzonitrile] | < 6.00 |
| Cc1cc(F)cc(-c2cncc(-c3nc4c(F)c(F)ccc4[nH]3)c2N2CC(CN)C2)c1 [Compound 1-6, 1-{1-[3-(4,5-difluoro-1H-1,3-benzodiazol-2-yl)-5-(3-fluoro-5-methylphenyl)pyridin-4-yl]azetidin-3-yl}methanamine] | < 6.00 |
